Columns and labels:
LATS1 = target: T1, LATS1 (Homo sapiens, UniProt O95835); test: Kinase Assay method (Fluorospark Kinase/ADP Multi-Assay Kit); type: biochemical
T1 construct: purchased Carna Biosciences
T1 sequence (O95835 589-1130 limits assumed): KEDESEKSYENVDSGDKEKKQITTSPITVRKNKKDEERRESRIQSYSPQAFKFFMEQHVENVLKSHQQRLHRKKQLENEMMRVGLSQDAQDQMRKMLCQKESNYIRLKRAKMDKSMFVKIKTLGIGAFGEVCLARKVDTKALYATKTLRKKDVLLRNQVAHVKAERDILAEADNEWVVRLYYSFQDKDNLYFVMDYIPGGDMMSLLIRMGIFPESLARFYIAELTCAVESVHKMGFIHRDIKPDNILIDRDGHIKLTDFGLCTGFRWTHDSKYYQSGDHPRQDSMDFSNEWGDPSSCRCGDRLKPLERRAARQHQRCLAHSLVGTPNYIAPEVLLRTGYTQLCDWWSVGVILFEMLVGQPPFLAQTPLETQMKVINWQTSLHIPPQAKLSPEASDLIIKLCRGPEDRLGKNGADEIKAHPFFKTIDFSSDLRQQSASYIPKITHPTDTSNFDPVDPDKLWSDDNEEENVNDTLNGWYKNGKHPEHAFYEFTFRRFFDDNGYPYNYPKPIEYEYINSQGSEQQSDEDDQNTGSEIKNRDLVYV
Protocol: (§1) For compound k-1:B-1 (racemate), GA-002A, GA-002B, GA-005A and GA-005B, inhibitory activity evaluation (calculation of IC50) was performed on LATS1 and LATS2 (manufactured by Carna Biosciences). The activity was measured using the Kinase Assay method described below. The compounds were added such that the test concentration of k-1:B-1 (racemate), GA-002A, GA-002B, GA-005A and GA-005B was in 8 steps (10 μM, 1 μM, 100 nM, […], 10 nM, 3 nM, 1 nM, 0.3 nM) from the final concentration of 10 μM to 0.3 nM.
(§2) As the analysis method of the data, the mean signal of the control well containing reaction components other than the evaluation compound was set to 0% inhibition, the mean signal without enzyme addition was set to 100% inhibition, and the inhibition rate was calculated from the mean signal of 2 wells of each test substance test. IC50 value was calculated using EXSUS (version 7.1.6, manufactured by CAC EXICARE Corporation).
(§3) 2 μL of a compound of the present invention solution at 2.5-fold concentration, 1 μL of substrate at 5-fold concentration (SGKtide: NH2—CKKRNRRLSVA-COOH, manufactured by SignalChem), ATP (manufactured by Sigma-Aldrich), MgCl2 (manufactured by FUJIFILM Wako Pure Chemical Corporation) solution (final concentration 10 μM, 400 μM or 5 mM), and 2 μL of kinase solution at 2.5-fold concentration (final concentration of LATS1 or LATS2 5 μg/mL), each prepared with assay buffer (20 mM HEPES, 0.01% Triton X-100, 2 mM DTT, pH 7.5), were mixed in the wells of a polypropylene 384-well plate (manufactured by Greiner Bio-One, #784900) and reacted at room temperature for 5 hr. Successively, 5 μL detection solution (Fluorospark (registered trade mark)Kinase/ADP Multi-Assay Kit; manufactured by FUJIFILM Wako Pure Chemical Corporation) was added, and the mixture was reacted at room temperature 30 min. Successively, 5 μL of a reaction quenching liquid (Fluorospark (registered trade mark) Kinase/ADP Multi-Assay Kit; manufactured by FUJIFILM Wako Pure Chemical Corporation) was added to discontinue the reaction. Thereafter, the ADP concentration of the reaction solution was quantified by EnSpire (manufactured by PerkinElmer) to detect the kinase reaction.

LATS2 = target: T2, LATS2 (Homo sapiens, UniProt Q9NRM7); test: as above; type: biochemical
T2 construct: purchased Carna Biosciences
T2 sequence (Q9NRM7 553-1088 limits assumed): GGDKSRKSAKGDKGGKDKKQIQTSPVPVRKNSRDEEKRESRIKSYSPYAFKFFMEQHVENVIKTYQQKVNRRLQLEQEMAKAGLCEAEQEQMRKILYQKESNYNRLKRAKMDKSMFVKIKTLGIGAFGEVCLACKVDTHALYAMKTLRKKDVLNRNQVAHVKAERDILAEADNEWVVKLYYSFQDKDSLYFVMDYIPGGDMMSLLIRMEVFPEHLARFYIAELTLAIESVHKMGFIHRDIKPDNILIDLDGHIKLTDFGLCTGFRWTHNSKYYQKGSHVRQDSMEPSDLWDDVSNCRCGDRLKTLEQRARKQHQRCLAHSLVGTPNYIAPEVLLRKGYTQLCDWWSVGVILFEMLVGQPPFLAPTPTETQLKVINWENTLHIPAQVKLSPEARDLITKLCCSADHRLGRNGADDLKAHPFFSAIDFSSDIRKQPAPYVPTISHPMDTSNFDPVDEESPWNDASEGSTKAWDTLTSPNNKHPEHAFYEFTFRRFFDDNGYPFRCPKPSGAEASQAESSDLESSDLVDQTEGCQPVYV
Protocol: as §1, §2, §3

[1] = Kinase Assay method, 8 steps 10 μM to 0.3 nM

- inhibition at 0.1 µM (LATS1; 100 nM, read-out: LARS1 inhibitory rate (%)): 94%
- inhibition at 1 µM (LATS1; 1000 nM, read-out: LARS1 inhibitory rate (%)): 102%
- IC50 (LATS1; [1]): 8.88 nM
- inhibition at 0.1 µM (LATS2; 100 nM, read-out: LARS2 inhibitory rate (%)): 75%
- inhibition at 1 µM (LATS2; 1000 nM, read-out: LARS2 inhibitory rate (%)): 96%
- IC50 (LATS2; [1]): 30.8 nM
SMILES: CC/C(=N\NC(=O)C(C)Nc1ccccc1)c1ccc(O)c(C)c1O (stereo not drawn) [k-1:B-1]
